Values joined by “and” are separate entries in the source; they are usually repeats but may differ in a detail not shown here. Equal values may be shown once.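 Dose response: 5 concentrations. Exposure: 48 h. Format: 96-well plates. Endpoint: linear interpolation; highest concentration if not reached. GI50 is the concentration that inhibits growth by half.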 Active and inactive are the calls of the source. Rule as the data show it: active = GI50 up to about 1.1 µM and inactive = higher.
Columns and labels:
Experiment in all cases: NCI anticancer screen, dose series, 48 h
[1] = tested on: NCI-H226
[2] = tested on: SK-MEL-5
[3] = tested on: T47D
[4] = tested on: NCI-H460
[5] = tested on: NCI-H23
[6] = tested on: Malme-3M
[7] = tested on: NCI/ADR-RES
[8] = tested on: RXF 393
[9] = tested on: M14
[10] = tested on: ACHN
[11] = tested on: M19-MEL
[12] = tested on: KM-20L2
[13] = tested on: SF-295
[14] = tested on: UO-31
[15] = tested on: A549
[16] = tested on: HL-60
[17] = tested on: SW-620
[18] = tested on: DLD-1
[19] = tested on: SK-MEL-2
[20] = tested on: COLO 205
[21] = tested on: HT-29
[22] = tested on: DMS-273
[23] = tested on: EKVX
[24] = tested on: LXFL 529
[25] = tested on: HCT-116
[26] = tested on: SNB-19
[27] = tested on: SN12C
[28] = tested on: Hs-578T
[29] = tested on: U-251
[30] = tested on: LOX IMVI
[31] = tested on: OVCAR-8
[32] = tested on: SR
[33] = tested on: SNB-75
[34] = tested on: OVCAR-3
[35] = tested on: IGROV-1
[36] = tested on: CAKI-1
[37] = tested on: UACC-62
[38] = tested on: HOP-92
[39] = tested on: 786-0
[40] = tested on: DU-145
[41] = tested on: MDA-MB-231
[42] = tested on: XF498
[43] = tested on: HOP-62
[44] = tested on: HCT-15
[45] = tested on: MCF7
[46] = tested on: SF-539
[47] = tested on: TK-10
[48] = tested on: SK-OV-3
[49] = tested on: DMS-114
[50] = tested on: HOP-18
[51] = tested on: SK-MEL-28
[52] = tested on: RXF 631
[53] = tested on: NCI-H522
[54] = tested on: SF-268
[55] = tested on: A498
[56] = tested on: OVCAR-4
[57] = tested on: MDA-N
[58] = tested on: PC-3
[59] = tested on: SNB-78
[60] = tested on: BT-549
[61] = tested on: UACC-257
[62] = tested on: MDA-MB-435
[63] = tested on: HCC 2998

C=C1C(=O)OC2/C=C(\CO)C(OC(C)=O)CC(O)/C(C)=C/C(OC(=O)C(C)CC)C12 (stereo not drawn)
GI50 [1]: 29.6 µM (inactive) | GI50 [2]: 18.8 µM (inactive) and 17 µM (inactive) | GI50 [3]: 15.7 µM (inactive) | GI50 [4]: 23.3 µM (inactive) and 38.6 µM (inactive) | GI50 [5]: 24.2 µM (inactive) and 17.2 µM (inactive) | GI50 [6]: 13.5 µM (inactive) and 15.3 µM (inactive) | GI50 [7]: > 100 µM (inactive) | GI50 [8]: 23.1 µM (inactive) and 24.4 µM (inactive) | GI50 [9]: 16.7 µM (inactive) and 15.8 µM (inactive) | GI50 [10]: 26.2 µM (inactive) and 23.7 µM (inactive) | GI50 [11]: 16.8 µM (inactive) | GI50 [12]: 22.4 µM (inactive) | GI50 [13]: > 100 µM (inactive) | GI50 [14]: 87.1 µM (inactive) and 65.5 µM (inactive) | GI50 [15]: 45.8 µM (inactive) and 37.3 µM (inactive) | GI50 [16]: 5.86 µM (inactive) and 4.97 µM (inactive) | GI50 [17]: 11.8 µM (inactive) and 21.5 µM (inactive) | GI50 [18]: 12.9 µM (inactive) | GI50 [19]: 17.5 µM (inactive) and 17.1 µM (inactive) | GI50 [20]: 14 µM (inactive) and 11.8 µM (inactive) | GI50 [21]: 16.3 µM (inactive) and 21 µM (inactive) | GI50 [22]: 19.1 µM (inactive) | GI50 [23]: 25.5 µM (inactive) and 25.1 µM (inactive) | GI50 [24]: 13.9 µM (inactive) | GI50 [25]: 14 µM (inactive) and 19.7 µM (inactive) | GI50 [26]: 50.1 µM (inactive) and 75.7 µM (inactive) | GI50 [27]: 18.2 µM (inactive) and 20.2 µM (inactive) | GI50 [28]: 36.9 µM (inactive) | GI50 [29]: 30.1 µM (inactive) and 26.9 µM (inactive) | GI50 [30]: 18.8 µM (inactive) and 13.7 µM (inactive) | GI50 [31]: 21.7 µM (inactive) and 17.7 µM (inactive) | GI50 [32]: 8 µM (inactive) | GI50 [33]: 24.3 µM (inactive) | GI50 [34]: 18.5 µM (inactive) and 16.5 µM (inactive) | GI50 [35]: 38.4 µM (inactive) and 40 µM (inactive) | GI50 [36]: 27.5 µM (inactive) and 24.2 µM (inactive) | GI50 [37]: 19.4 µM (inactive) and 17.5 µM (inactive) | GI50 [38]: 18.5 µM (inactive) and 21.7 µM (inactive) | GI50 [39]: 14.8 µM (inactive) and 21.8 µM (inactive) | GI50 [40]: 19.8 µM (inactive) | GI50 [41]: 17.3 µM (inactive) | GI50 [42]: 15.8 µM (inactive) | GI50 [43]: > 100 µM (inactive) | GI50 [44]: 38.6 µM and 30.2 µM | GI50 [45]: 12.9 µM (inactive) | GI50 [46]: 24.8 µM (inactive) and 19.2 µM (inactive) | GI50 [47]: 17.6 µM (inactive) and 19.3 µM (inactive) | GI50 [48]: > 100 µM (inactive) | GI50 [49]: 23.6 µM (inactive) | GI50 [50]: 23.8 µM (inactive) | GI50 [51]: 18.3 µM (inactive) and 26.9 µM (inactive) | GI50 [52]: 33.5 µM (inactive) | GI50 [53]: 4.57 µM (inactive) and 3.4 µM (inactive) | GI50 [54]: 28.9 µM (inactive) and 19.7 µM (inactive) | GI50 [55]: 33 µM (inactive) and 28.2 µM (inactive) | GI50 [56]: 33.5 µM (inactive) and 17.3 µM (inactive) | GI50 [57]: 18.3 µM (inactive) | GI50 [58]: 39.2 µM (inactive) | GI50 [59]: 16.3 µM (inactive) | GI50 [60]: 19.4 µM (inactive) | GI50 [61]: 15.2 µM (inactive) and 18 µM (inactive) | GI50 [62]: 20.3 µM (inactive) | GI50 [63]: 22.4 µM (inactive) and 15.6 µM (inactive)

Source: ChEMBL document CHEMBL1201862, “PubChem BioAssay data set” (2004)
